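These data come from cells grown in 96-well plates and exposed to compound for 48 hours at five concentrations. Abbreviation: GI50, concentration required for 50% inhibition of growth. TGI: total growth inhibition.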

Holding throughout (assay): DTP human tumour cell line panel, 48 h
Experiment [1] relates to SNB-75 CNS.
In experiment [2] the test system is COLO 205 colon.
Experiment [3] relates to SF-295 CNS.
Experiment [4] deals with SNB-19 CNS.
Experiment [5] relates to SN12C renal.
Experiment [6] relates to U251 CNS.
Experiment [7] deals with LOX IMVI melanoma.
Experiment [8] has as its system CAKI-1 renal.
Experiment [9] concerns SK-OV-3 ovarian.

As a reminder, the TGI is the concentration at which net growth stops. Read a high TGI as less potent growth arrest. For the molecule `COc1ccc2cc(C(=O)c3ccccc3C(=O)O)ccc2c1`, the concentration for total growth inhibition (TGI) in [1], in experiment [2], in experiment [3], in [4], in experiment [5] and in [6] was more than 100 µM throughout. Moreover, the TGI in [7], in [8] and in experiment [9] was more than 100 µM in each case.

With `O=c1c(O)c(-c2ccc(O)c(O)c2)oc2cc(O)ccc12`, the concentration for total growth inhibition (TGI) is 18.2 µM in [1]; more than 100 µM in [2]; 54.4 µM in [3]; more than 100 µM in experiment [4]; 56.4 µM in experiment [5]; 35.6 µM in experiment [6]. Besides, the TGI in experiment [7] turned out to be 32.4 µM; in experiment [9] it was 59.9 µM.

A word on the GI50: it is the concentration that inhibits growth by half. For `CCC[CH2][Sn]1([CH2]CCC)[O]C(c2ccccn2)S(=O)(=O)[O]1` (centres undefined), the GI50 is 2.53 µM in [1]; 2.1 µM in experiment [2]; 2.94 µM in [3]; 11.4 µM in experiment [4]; 9.11 µM in experiment [5]; 2.96 µM in [6]. Also, the GI50 was 1.64 µM in experiment [7], 1.58 µM in [8] and 16.8 µM in experiment [9]. The TGI in experiment [1] was found to be 7.26 µM; in [2], 4.54 µM; in [3] it was 8.26 µM; in experiment [4] it was 23.5 µM; in experiment [5], 21.1 µM; in experiment [6] it was 11.8 µM. In addition, the TGI in experiment [7] turned out to be 3.07 µM; in experiment [8] it was 3.63 µM; in experiment [9], 30.9 µM.

Regarding `CC[O-].CC[O-].[O-]c1ccccc1C=Nc1ccccc1.[O-]c1ccccc1C=Nc1ccccc1.[Ti+4]`, the GI50 in experiment [2] was 96.8 µM; in experiment [3], more than 100 µM; in experiment [4], more than 100 µM; in experiment [5], more than 100 µM; in experiment [6], more than 100 µM; in experiment [7], 1.92 µM. Further, the GI50 in experiment [8] is 85.1 µM; in [9] it was more than 100 µM. In addition, the TGI in experiment [2], in [3], in [4], in [5], in [6] and in [7] was more than 100 µM each time. The TGI in [8] and in experiment [9] was more than 100 µM in each case.

On to `CCN1C(C)=NC2C(=O)c3ccccc3C(=O)C21` (centres undefined), for which the TGI in experiment [1], in experiment [2], in [3], in [4], in [5] and in experiment [6] was more than 100 µM each time. This molecule yielded a TGI in experiment [7] of more than 100 µM.

Consider `CCc1ccccc1NC(=O)/C(CC(=O)c1c(C)n([O-])c2ccccc2[n+]1=O)=N\NS(=O)(=O)c1ccc(C)cc1`, for which the TGI in [1], in experiment [2], in experiment [3], in experiment [4], in experiment [5] and in [6] was more than 100 µM each time. Further, in experiment [9], the TGI is more than 100 µM.

With `C[C@]12CCC3c4ccc(OC(=O)c5ccccc5)cc4CC[C@H]3C1CC[C@@H]2OC(=O)C12OC1CCC2=O` (some centres undefined), the TGI in experiment [1] was 19.1 µM; in [2], 7.49 µM; in experiment [3] it was 28.7 µM; in experiment [4] it was 37 µM; in [5], 11.9 µM; in [6], 17.4 µM. In addition, the TGI in experiment [7] was determined as 8.13 µM; in experiment [9] it was 33.4 µM.

Turning to `C/C(=N\O)c1sc(-n2nc(-c3ccccc3)cc2-c2ccccc2)nc1C`, the TGI is more than 31.6 µM in experiment [1]; 20.2 µM in [3]; 17.9 µM in experiment [4]; 15.4 µM in experiment [5]; 16.3 µM in experiment [6]; 18 µM in [7]. In addition, the TGI in experiment [8] stood at 27.3 µM.

Turning to `Cc1nc(NC(=S)NC(=O)c2ccc(Cl)c(Cl)c2)sc1C(=O)/C=C/c1ccccc1[N+](=O)[O-]`, the TGI in experiment [2] is 34.9 µM; in experiment [3], 58.9 µM; in [4] it was 46.9 µM; in [5], 61.7 µM; in experiment [6], 32.9 µM; in [7], 34.3 µM. In addition, the values for the TGI in experiment [8] and in experiment [9] were 47.3 µM and 49.7 µM, respectively.

In the case of `CCOC(=O)C12CCCC1(O)N(NC(=O)c1cccc(Cl)c1)C(C)=C2C(=O)OC` (centres undefined), the total growth inhibition concentration (TGI) in [1], in experiment [3], in [4], in experiment [5], in experiment [6] and in [7] was more than 100 µM in each case. The TGI in experiment [8] and in experiment [9] was more than 100 µM each time.

In the case of `CC1(C)CC23C(=O)N(c4ccccc4)C(=Nc4ccccc4)NC2=CC(C#N)=C(C#N)C3O1` (centres undefined), the TGI in [1], in [2], in [3], in experiment [4], in [5] and in [6] was more than 100 µM each time. The TGI in [7] and in experiment [8] was more than 100 µM throughout.

For the molecule `CC(C#N)c1cn(S(=O)(=O)c2ccccc2)c2ccccc12` (centres undefined), the TGI was 38.2 µM in experiment [1]; more than 100 µM in [2]; more than 100 µM in [3]; more than 100 µM in [4]; more than 100 µM in [6]; more than 100 µM in experiment [8].

As for `O=C(O)/C(Cl)=C(\Cl)Nc1cccc(C(F)(F)F)c1`, the TGI in experiment [1], in [2], in experiment [3], in [5], in [6] and in experiment [7] was more than 100 µM each time. Moreover, the TGI in experiment [8] and in experiment [9] was more than 100 µM throughout.

As for `CC(=O)[CH-]C(=O)c1ccccc1.CC(=O)[CH-]C(=O)c1ccccc1.O=C([O-])C[O-].O=C([O-])C[O-].[Ti+4]`, the GI50 in [1] was 18.6 µM; in [3] it was 50.7 µM; in experiment [4] it was 30.8 µM; in experiment [5], 60.5 µM; in experiment [6] it was 32 µM; in experiment [7], 41.2 µM. The GI50 is 54.5 µM in experiment [8] and 35.8 µM in experiment [9]. In addition, the TGI in experiment [1] is 56.7 µM; in [3] it was more than 100 µM; in experiment [4], more than 100 µM; in [5], more than 100 µM; in [6], more than 100 µM; in experiment [7], more than 100 µM. In addition, the TGI in experiment [8] and in experiment [9] was more than 100 µM throughout.

The values are drawn from PubChem BioAssay (NCI).
